Measurements published in patent publication US20240197820A1, “Bacteriocin for new application” (priority 2021, published 2024).
Entries after “also recorded” stand apart in the source; their conditions may differ. No end group written: not given here.

What was measured:
[1] = test system: S. aureus ATCC 6538; test: Antimicrobial activity test on inoculated M17 agar plates (inhibition halo); assay type: cell-based, Staphylococcus aureus; settings: 1 mg/ml, overnight incubation
Description: (§1) Bacterial strains were grown overnight in liquid culture on rotary shakers or on agar plates using M17 media supplemented with 0.5% glucose. S. aureus ATCC 6538 and S. epidermidis ATCC 12228 liquid cultures and agar plates were grown anaerobically at 37° C. Culture volume utilized in MIC assays was 200 μl.
(§2) Antimicrobial activity of bacteriocin peptides was tested on M17 agar plates in Examples 1 and 3.
(§3) In Example 1, 2 μl of cerein 7B peptide (SEQ ID NO: 2) aqueous solutions at a concentration of 1 mg/ml were deposited on inoculated M17 agar plates of S. aureus ATCC 6538 and S. epidermidis ATCC 12228. In the case of S. epidermidis ATCC 12228, an equivalent amount of aureocin A53 aqueous solution (1 mg/ml concentration) was used as positive control.
In Example 3, 5 μl of bacteriocin peptides (SEQ ID NO: 2, 4-51) aqueous solutions at a concentration of 1 mg/ml were deposited on inoculated M17 agar plates of S. aureus ATCC 6538. After overnight incubation, the presence of an inhibition halo was considered as a positive result of antimicrobial activity.

[2] = test system: S. epidermidis ATCC 12228; test: as above; assay type: cell-based, Staphylococcus epidermidis; settings: 2 μl of aqueous solution, 1 mg/ml, overnight incubation
Description: as §1, §2, §3

[3] = test system: S. aureus ATCC 6538; test: MIC assay in liquid culture (endpoint OD600); assay type: cell-based, Staphylococcus aureus; settings: liquid culture 200 μl, M17 + 0.5% glucose, 37° C., overnight, 2-fold dilutions from 250 μg/ml
Description: as §1
(§4) Determination of MIC values of a cerein 7B peptide (SEQ ID NO: 2) was performed in liquid cultures of S. aureus ATCC 6538 and S. epidermidis ATCC 12228. Growth was assessed by measuring endpoint OD600 values in a Spectramax i3 (Molecular Devices, CA, USA). Minimum inhibitory concentration (MIC) was defined as the lowest concentration which inhibited 50% of the growth of cultures as compared to reference cultures not exposed to the peptide. Concentration of the peptide was 250 μg/ml in well 11, diluted 2-fold per subsequent well as shown in Table 3 (concentrations rounded to the second decimal): […]

[4] = test system: S. epidermidis ATCC 12228; test: MIC assay in liquid culture (endpoint OD600); assay type: cell-based, Staphylococcus epidermidis; settings: tested concentrations 0.24 to 250 μg/ml
Description: as §1, §4

[5] = test system: Lactococcus lactis LMG IL 1403; settings: cited from earlier work

| Substance | inhibition halo (antimicrobial activity on agar plate) ([1]; 2 μl of aqueous solution, chemically synthesized peptide) | inhibition halo (antimicrobial activity on agar plate) [2] | MIC (lowest concentration which inhibited 50% of the growth of cultures) [3] [µg/mL] | growth inhibition in MIC assay [4] | activity against Lactococcus lactis LMG IL 1403 [5] | antimicrobial activity of mutants (inhibition halo) ([1]; 5 μl of aqueous solution, M17 agar plate, peptides synthesized in vitro (PURExpress)) |
| --- | --- | --- | --- | --- | --- | --- |
| GWWNSWGKCVAGTIGGAGTGGLGGAAAGSAVPVIGTGIGGAIGGVSGGLTGAATFC (cysteines drawn unpaired) [cerein 7B] | An inhibition halo was visible | no inhibition halo was visible; also recorded: no inhibition halo was present | 15.63 | No growth inhibition was observed | demonstrated its activity |  |
| GWWNSWGKCVAGTIGGAGTGGLGGAAAGSAVPVIGTGIGGAIGGVSGGLTGAATFCW (mutant 48 (E2)) [SEQ ID NO: 51] |  |  |  |  |  | did not compromise its antimicrobial activity |
| aureocin A53 [reference compound] |  | an inhibition halo was present |  |  |  |  |
